Source: US20260007131A1, “HERBICIDAL COMPOSITION CONTAINING DIFLUOROBUTENOIC ACID AMIDE COMPOUND” (ISHIHARA SANGYO KAISHA, LTD., priority 2022, published 2026)

Assays:
Type in all cases: in vivo
[1] = test system: barnyardgrass (Echinochloa crus-galli); experiment: Herbicidal effect on barnyardgrass (soil treatment); conditions: for inhibition at 500 g/ha / inhibition at 1000 g/ha: Comparative Test 2, barnyardgrass, read-out: Growth inhibition rate
From the text: (§1) Upland soil was put into a 1/300,000 hectare (ha) pot, seeds of barnyardgrass (Echinochloa crus-galli) were sown, and about 1.5 cm of cover soil was put. […] On the next day after sowing, the spray solution was sprayed with a small sprayer for soil treatment.
(§2) Upland soil was put into a 1/300,000 hectare (ha) pot, seeds of barnyardgrass (Echinochloa crus-galli), crabgrass (Digitaria sanguinalis), green foxtail (Setaria viridis), Italian ryegrass (Lolium multiflorum), redroot pigweed (Amaranthus retroflexus) and common chickweed (Stellaria media) were sown, and about 1.5 cm of cover soil was put.

[2] = test system: green foxtail (Setaria viridis); experiment: Herbicidal effect on green foxtail (foliar treatment); conditions: for inhibition at 500 g/ha / inhibition at 1000 g/ha: Comparative Test 1, green foxtail, read-out: Growth inhibition rate
Procedure: (§3) Upland soil was put into a 1/300,000 hectare (ha) pot, seeds of barnyardgrass (Echinochloa crus-galli) were sown, and about 1.5 cm of cover soil was put. The barnyardgrass was grown for 10 days in a greenhouse until it reached a predetermined leaf stage. […] The spray solution was sprayed over the grown barnyardgrass with a small sprayer for foliar treatment.
(§4) Upland soil was put into a 1/300,000 hectare (ha) pot, seeds of barnyardgrass (Echinochloa crus-galli), crabgrass (Digitaria sanguinalis), green foxtail (Setaria viridis), wild oat (Avena fatua), Italian ryegrass (Lolium multiflorum), foxtail shortawn (Alopecurus aequalis), annual bluegrass (Poa annua), redroot pigweed (Amaranthus retroflexus), common chickweed (Stellaria media) common lambsquarters (Chenopodium album) and black nightshade (Solanum nigrum) were sown, and about 1.5 cm of cover soil was put. The plants were grown for 10 days in a greenhouse until they reached a predetermined leaf stage.

[3] = test system: common chickweed (Stellaria media); experiment: Herbicidal effect on common chickweed (foliar treatment); conditions: for inhibition at 500 g/ha / inhibition at 1000 g/ha: Comparative Test 1, common chickweed, read-out: Growth inhibition rate
Procedure: as §3, §4

[4] = test system: green foxtail (Setaria viridis); experiment: Herbicidal effect on green foxtail (soil treatment); conditions: for inhibition at 500 g/ha / inhibition at 1000 g/ha: Comparative Test 2, green foxtail, read-out: Growth inhibition rate
From the text: as §1, §2

[5] = test system: redroot pigweed (Amaranthus retroflexus); experiment: Herbicidal effect on redroot pigweed (soil treatment); conditions: for inhibition at 500 g/ha / inhibition at 1000 g/ha: Comparative Test 2, redroot pigweed, read-out: Growth inhibition rate
From the text: as §1, §2

[6] = test system: Italian ryegrass (Lolium multiflorum); experiment: Herbicidal effect on Italian ryegrass (foliar treatment); conditions: for inhibition at 500 g/ha / inhibition at 1000 g/ha: Comparative Test 1, Italian ryegrass, read-out: Growth inhibition rate
Procedure: as §3, §4

[7] = test system: foxtail shortawn (Alopecurus aequalis); experiment: Herbicidal effect on foxtail shortawn (foliar treatment); conditions: for inhibition at 500 g/ha / inhibition at 1000 g/ha: Comparative Test 1, foxtail shortawn, read-out: Growth inhibition rate
Procedure: as §3, §4

[8] = test system: common chickweed (Stellaria media); experiment: Comparative Test 2: herbicidal effect on common chickweed (soil treatment); conditions: Comparative Test 2, common chickweed, read-out: Growth inhibition rate
From the text: Upland soil was put into a 1/300,000 hectare (ha) pot, seeds of barnyardgrass (Echinochloa crus-galli), crabgrass (Digitaria sanguinalis), green foxtail (Setaria viridis), Italian ryegrass (Lolium multiflorum), redroot pigweed (Amaranthus retroflexus) and common chickweed (Stellaria media) were sown, and about 1.5 cm of cover soil was put. The Invention Compound (Aa-1-1, Aa-9-2) or the compound 4b described in Patent Document 1 was weighed to achieve a predetermined active ingredient dose, dissolved in acetone (containing 0.5 vol % of surfactant (TritonX-100: manufactured by Kishida Chemical Co., Ltd.)) or dimethyl sulfoxide and diluted with water (containing 0.1 vol % of agricultural spreader (Surfactant WK: manufactured by MARUWA Biochemical Co., Ltd.) in an amount corresponding to 1,000 liter per hectare, to prepare each spray solution. On the next day after sowing, each spray solution was sprayed with a small sprayer for soil treatment. On the 14th day after the soil treatment, the state of growth of each plant was visually observed, and the herbicidal effect was evaluated in accordance with the growth inhibition rate (%) of from 0 (equivalent to the non-treated area) to 100 (complete kill).

[9] = test system: Italian ryegrass (Lolium multiflorum); experiment: Herbicidal effect on Italian ryegrass (soil treatment); conditions: Comparative Test 2, Italian ryegrass, read-out: Growth inhibition rate
From the text: as §1, §2

[10] = test system: redroot pigweed (Amaranthus retroflexus); experiment: Herbicidal effect on redroot pigweed (foliar treatment); conditions: for inhibition at 500 g/ha / inhibition at 1000 g/ha: Comparative Test 1, redroot pigweed, read-out: Growth inhibition rate
Procedure: as §3, §4

[11] = test system: annual bluegrass (Poa annua); experiment: Herbicidal effect on annual bluegrass (foliar treatment); conditions: for inhibition at 500 g/ha / inhibition at 1000 g/ha: Comparative Test 1, annual bluegrass, read-out: Growth inhibition rate
Procedure: as §3, §4

[12] = test system: barnyardgrass (Echinochloa crus-galli); experiment: Herbicidal effect on barnyardgrass (foliar treatment); conditions: for inhibition at 500 g/ha / inhibition at 1000 g/ha: Comparative Test 1, barnyardgrass, read-out: Growth inhibition rate
Procedure: as §3, §4

wild oat (Avena fatua) = experiment: Herbicidal effect on wild oat (foliar treatment); conditions: for inhibition at 500 g/ha / inhibition at 1000 g/ha: Comparative Test 1, wild oat, read-out: Growth inhibition rate
Procedure: as §3, §4

[13] = test system: crabgrass (Digitaria sanguinalis); experiment: Herbicidal effect on crabgrass (foliar treatment); conditions: for inhibition at 500 g/ha / inhibition at 1000 g/ha: Comparative Test 1, crabgrass, read-out: Growth inhibition rate
Procedure: as §3, §4

[14] = test system: crabgrass (Digitaria sanguinalis); experiment: Herbicidal effect on crabgrass (soil treatment); conditions: for inhibition at 500 g/ha / inhibition at 1000 g/ha: Comparative Test 2, crabgrass, read-out: Growth inhibition rate
From the text: as §1, §2

[15] = test system: black nightshade (Solanum nigrum); experiment: Herbicidal effect on black nightshade (foliar treatment); conditions: for inhibition at 500 g/ha / inhibition at 1000 g/ha: Comparative Test 1, black nightshade, read-out: Growth inhibition rate
Procedure: as §3, §4

[16] = test system: common lambsquarters (Chenopodium album); experiment: Herbicidal effect on common lambsquarters (foliar treatment); conditions: for inhibition at 500 g/ha / inhibition at 1000 g/ha: Comparative Test 1, common lambsquarters, read-out: Growth inhibition rate
Procedure: as §3, §4

[17] = test system: mexican burningbush (Kochia scoparia); experiment: Herbicidal effect on mexican burningbush (soil treatment); conditions: Bassia scoparia, 14th day, read-out: growth inhibition rate
From the text: Upland soil was put into a 1/300,000 hectare (ha) pot, seeds of barnyardgrass (Echinochloa crus-galli) were sown, and about 1.5 cm of cover soil was put. The Invention Compound was weighed to achieve a predetermined active ingredient amount, dissolved in acetone (containing 0.5 vol % of surfactant (TritonX-100: manufactured by Kishida Chemical Co., Ltd.)) or dimethyl sulfoxide and diluted with water (containing 0.1 vol % of agricultural spreader (Surfactant WK: manufactured by MARUWA Biochemical Co., Ltd.)) in an amount corresponding to 1,000 liter per hectare, to prepare a spray solution. On the next day after sowing, the spray solution was sprayed with a small sprayer for soil treatment.
On the 14th day after the soil treatment, the state of growth of each plant was visually observed.
To confirm herbicidal effect on mexican burningbush (Kochia scoparia), the same test as in Test Example 2 (2-1) (soil treatment) was conducted using the following compounds.

[18] = barnyardgrass, 250 g/ha, 14th day, read-out: growth inhibition rate
[19] = green foxtail, 250 g/ha, 14th day, read-out: growth inhibition rate
[20] = redroot pigweed, 250 g/ha, 14th day, read-out: growth inhibition rate
[21] = crabgrass, 250 g/ha, 14th day, read-out: growth inhibition rate

Compound: CN(C(=O)/C=C/c1ccccc1)C1CCC1 [Compound 4b, reference compound]
- inhibition at 500 g/ha [1]: < 30%
- inhibition at 1000 g/ha [1]: < 30%
- inhibition at 500 g/ha [2]: < 30%
- inhibition at 1000 g/ha [2]: < 30%
- inhibition at 500 g/ha [3]: < 30%
- inhibition at 1000 g/ha [3]: 30 to 50%
- inhibition at 500 g/ha [4]: < 30%
- inhibition at 1000 g/ha [4]: < 30%
- inhibition at 500 g/ha [5]: < 30%
- inhibition at 1000 g/ha [5]: < 30%
- inhibition at 500 g/ha [6]: < 30%
- inhibition at 1000 g/ha [6]: < 30%
- inhibition at 500 g/ha [7]: < 30%
- inhibition at 1000 g/ha [7]: < 30%
- inhibition at 500 g/ha [8]: < 30%
- inhibition at 1000 g/ha [8]: < 30%
- inhibition at 500 g/ha [9]: < 30%
- inhibition at 1000 g/ha [9]: < 30%
- inhibition at 500 g/ha [10]: < 30%
- inhibition at 1000 g/ha [10]: 30 to 50%
- inhibition at 500 g/ha [11]: < 30%
- inhibition at 1000 g/ha [11]: < 30%
- inhibition at 500 g/ha [12]: < 30%
- inhibition at 1000 g/ha [12]: < 30%
- inhibition at 500 g/ha (wild oat (Avena fatua)): < 30%
- inhibition at 1000 g/ha (wild oat (Avena fatua)): < 30%
- inhibition at 500 g/ha [13]: < 30%
- inhibition at 1000 g/ha [13]: < 30%
- inhibition at 500 g/ha [14]: < 30%
- inhibition at 1000 g/ha [14]: < 30%
- inhibition at 500 g/ha [15]: < 30%
- inhibition at 1000 g/ha [15]: ≥ 90%
- inhibition at 500 g/ha [16]: < 30%
- inhibition at 1000 g/ha [16]: < 30%

Compound: COC(=O)[C@H]1C[C@@H](NC(=O)C(F)(F)/C=C/c2cc(F)cc(F)c2)C1 [Aa-1-1]
- inhibition at 500 g/ha [1]: ≥ 90%
- inhibition at 1000 g/ha [1]: ≥ 90%
- inhibition at 250 g/ha [1, 18]: ≥ 70%
- inhibition at 500 g/ha [2]: ≥ 90%
- inhibition at 1000 g/ha [2]: ≥ 90%
- inhibition at 250 g/ha [2, 19]: ≥ 70%
- inhibition at 500 g/ha [3]: ≥ 90%
- inhibition at 1000 g/ha [3]: ≥ 90%
- inhibition at 250 g/ha ([3]; common chickweed, 250 g/ha, 14th day, read-out: growth inhibition rate): ≥ 70%
- inhibition at 500 g/ha [4]: ≥ 90%
- inhibition at 1000 g/ha [4]: ≥ 90%
- inhibition at 250 g/ha [4, 19]: ≥ 70%
- inhibition at 500 g/ha [5]: ≥ 90%
- inhibition at 1000 g/ha [5]: ≥ 90%
- inhibition at 250 g/ha [5, 20]: ≥ 70%
- inhibition at 500 g/ha [6]: ≥ 90%
- inhibition at 1000 g/ha [6]: ≥ 90%
- inhibition at 250 g/ha ([6]; Italian ryegrass, 250 g/ha, 14th day, read-out: growth inhibition rate): ≥ 70%
- inhibition at 500 g/ha [7]: ≥ 90%
- inhibition at 1000 g/ha [7]: ≥ 90%
- inhibition at 250 g/ha ([7]; foxtail shortawn, 250 g/ha, 14th day, read-out: growth inhibition rate): ≥ 70%
- inhibition at 500 g/ha [8]: ≥ 90%
- inhibition at 1000 g/ha [8]: ≥ 90%
- inhibition at 250 g/ha [17]: ≥ 70%
- inhibition at 500 g/ha [9]: ≥ 90%
- inhibition at 1000 g/ha [9]: ≥ 90%
- inhibition at 500 g/ha [10]: 70 to 90%
- inhibition at 1000 g/ha [10]: 70 to 90%
- inhibition at 250 g/ha [10, 20]: ≥ 70%
- inhibition at 500 g/ha [11]: ≥ 90%
- inhibition at 1000 g/ha [11]: ≥ 90%
- inhibition at 250 g/ha ([11]; annual bluegrass, 250 g/ha, 14th day, read-out: growth inhibition rate): ≥ 70%
- inhibition at 500 g/ha [12]: ≥ 90%
- inhibition at 1000 g/ha [12]: ≥ 90%
- inhibition at 250 g/ha [12, 18]: ≥ 70%
- inhibition at 500 g/ha (wild oat (Avena fatua)): ≥ 90%
- inhibition at 1000 g/ha (wild oat (Avena fatua)): ≥ 90%
- inhibition at 250 g/ha (wild oat (Avena fatua); wild oat, 250 g/ha, 14th day, read-out: growth inhibition rate): ≥ 70%
- inhibition at 500 g/ha [13]: ≥ 90%
- inhibition at 1000 g/ha [13]: ≥ 90%
- inhibition at 250 g/ha [13, 21]: ≥ 70%
- inhibition at 500 g/ha [14]: ≥ 90%
- inhibition at 1000 g/ha [14]: ≥ 90%
- inhibition at 250 g/ha [14, 21]: ≥ 70%
- inhibition at 500 g/ha [15]: 70 to 90%
- inhibition at 1000 g/ha [15]: ≥ 90%
- inhibition at 250 g/ha ([15]; black nightshade, 250 g/ha, 14th day, read-out: growth inhibition rate): ≥ 70%
- inhibition at 500 g/ha [16]: 70 to 90%
- inhibition at 1000 g/ha [16]: 70 to 90%
- inhibition at 250 g/ha ([16]; common lambsquarters, 250 g/ha, 14th day, read-out: growth inhibition rate): ≥ 70%
